Experimental data from PubChem BioAssay AID1963826 (Molecular Pharmacology Branch, DTP, NCI, 2024).

System: 926638-142-R-J1-PDC complex spheroid viability
Test: Anticancer human tumor 926638-142-R-J1-PDC patient-derived endometrial carcinoma cell line growth inhibition [POLQ]
Conditions: for IC50: curve of first compound; for viability, T/C: stronger effect = lower value
Procedure: Multicellular complex tumor spheroid response to Polymerase (POL) inhibitors (novobiocin, ART-558, RP6685) in combination with a variety of drugs and investigational agents in selected tumor cell lines
The POL inhibitors (novobiocin, ART-558, and RP6685) were evaluated both individually and in combination with standard of care and investigational anticancer small molecules within a complex spheroid model of solid tumors. . Complex spheroids include a stromal component modeled by human endothelial cells (HUVEC) and fibroblasts modeled by human mesenchymal stem cells (MSCs). The concentration ranges selected for each drug and investigational agent were based upon clinically achievable concentrations if the clinical Cmax of the agent was known.
Compounds. The drugs and investigational agents: novobiocin (NSC847541), ART-558 (NSC835418), RP-6685 (NSC848927), peposertib (NSC802822), ceralasertib (NSC780249), elimusertib (NSC800525), camonsertib (NSC841442), AZD-1390 (NSC803789), olaparib (NSC753686), talazoparib (NSC767125), rucaparib (NSC756644), sotorasib (NSC818433), MRTX-1133 (NSC836407), SN-38 (NSC673596), topotecan (NSC609699), epotoside (NSC141540), doxorubicin (NSC123127), gemcitabine (NSC613327), 5-fluorouracil (NSC19893), paclitaxel (NSC125973), vemurafenib (NSC761431), MSA-2 (NSC828583), SN-011 (NSC837082), adavosertib (NSC754352), prexasertib (NSC758257), carboplatin (NSC241240) and oxaliplatin (NSC266046), were obtained from the National Cancer Institute (NCI) Developmental Therapeutics Program Chemical Repository (21). The FDA-approved anticancer drug set is available from the Developmental Therapeutics Program at https://dtp.cancer.gov/organization/dscb/obtaining/. […] The stock solutions were prepared in dimethyl sulfoxide (DMSO, Sigma-Aldrich, St. Louis, MO, cat. D2650), except for the platinum compounds which were prepared in saline (Quality Biological, Gaithersburg, MD, cat. 114-055-101), at 800-fold the tested concentration and stored at -70 degrees C prior to their use. All drugs and investigational agents were tested over a range starting from a high concentration at or near the clinical Cmax and decreasing in half-log increments. If the clinical Cmax for an agent had not been determined, the highest concentration tested was 10 microM, except for SN-38, which was tested at a high concentration of 1 microM.
Cell Culture. All cells were maintained in an incubator at 37 degrees C and 5% CO2 with 95% humidity. The PDC lines were cultured according to standard operating procedures established by the NCI PDMR (https://pdmr.cancer.gov). Table 3 of the manuscript, lists the cell lines along with the number of the three cell types plated to form the mct-spheroids and media for tumor cell growth. After thawing, all PDC lines, except 997537-175-T-J1-PDC and 415267-285-R-J2-PDC, were cultured in Matrigel-coated flasks prepared with a working solution of 1X Ham's F-12 nutrient mix, without supplementation (Thermo Fisher Scientific, cat. 11765054), 100 U/mL penicillin-streptomycin (Thermo Fisher Scientific, cat. 15140122), and 2.5% Matrigel (Corning Inc., Corning, NY, cat. 354248) for the first three passages. The two PDC lines 997537-175-T-J1-PDC and 415267-285-R-J2-PDC were cultured on uncoated flasks. The 857933-349-R-J2-PDC line was cultured in 6C/Colon 1B media containing advanced DMEM/F-12 (Thermo Fisher Scientific, cat. 12634028), 10 mM HEPES (Thermo Fisher Scientific, cat. 15630080), 1X GlutaMAX supplement (Thermo Fisher Scientific, cat. 35050061), 0.1 mg/mL primocin (InvivoGen, San Diego, CA, cat. ant-pm-2), 10% defined fetal bovine serum, heat inactivated (HyClone Laboratories Inc., Logan, UT, cat. SH30070.03HI), 50% L-WRN conditioned media (ATCC, cat. CRL-3276), 1.25 mM N-Acetyl-L-cysteine (Sigma-Aldrich, cat. A9165), 10 mM nicotinamide (Sigma-Aldrich, cat. N0636), 1X B-27 supplement (Thermo Fisher Scientific, cat. 17504044), 1X N-2 supplement (Thermo Fisher Scientific, cat. […]

[1] = second compound 0.0316 µM, first compound 0.0316 µM
[2] = second compound 0.0316 µM, first compound 0.1 µM
[3] = second compound 0.1 µM, first compound 0.0316 µM
[4] = second compound 0.1 µM, first compound 0.1 µM
[5] = second compound 0.316 µM, first compound 0.0316 µM
[6] = second compound 0.316 µM, first compound 0.1 µM
[7] = second compound 1 µM, first compound 0.0316 µM
[8] = second compound 1 µM, first compound 0.1 µM
[9] = second compound 3.16 µM, first compound 0.0316 µM
[10] = second compound 3.16 µM, first compound 0.1 µM
[11] = second compound 10 µM, first compound 0.0316 µM
[12] = second compound 10 µM, first compound 0.1 µM
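Note: spheroids exposed to drugs for one week before readout.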
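Throughout, for viability, T/C: percent viability relative to DMSO vehicle control wells set as 100%.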

Cn1ncnc1[C@H]1c2n[nH]c(=O)c3cc(F)cc(c23)N[C@@H]1c1ccc(F)cc1 + COC1C(OC(N)=O)C(O)C(Oc2ccc3c(O)c(NC(=O)c4ccc(O)c(CC=C(C)C)c4)c(=O)oc3c2C)OC1(C)C
IC50 (second compound 0.0316 µM): > 0.1 µM
IC50 (second compound 0.1 µM): > 0.1 µM
IC50 (second compound 0.316 µM): > 0.1 µM
IC50 (second compound 1 µM): > 0.1 µM
IC50 (second compound 3.16 µM): > 0.1 µM
IC50 (second compound 10 µM): > 0.1 µM
viability, T/C (second compound 0.0316 µM, first compound 0.000316 µM): 84.5%
viability, T/C (second compound 0.0316 µM, first compound 0.001 µM): 83.7%
viability, T/C (second compound 0.0316 µM, first compound 0.00316 µM): 81.7%
viability, T/C (second compound 0.0316 µM, first compound 0.01 µM): 86.5%
viability, T/C [1]: 71.5%
viability, T/C [2]: 79.5%
viability, T/C (second compound 0.1 µM, first compound 0.000316 µM): 106%
viability, T/C (second compound 0.1 µM, first compound 0.001 µM): 96.4%
viability, T/C (second compound 0.1 µM, first compound 0.00316 µM): 86%
viability, T/C (second compound 0.1 µM, first compound 0.01 µM): 90.5%
viability, T/C [3]: 76.3%
viability, T/C [4]: 69.5%
viability, T/C (second compound 0.316 µM, first compound 0.000316 µM): 117%
viability, T/C (second compound 0.316 µM, first compound 0.001 µM): 86.4%
viability, T/C (second compound 0.316 µM, first compound 0.00316 µM): 72.7%
viability, T/C (second compound 0.316 µM, first compound 0.01 µM): 78.5%
viability, T/C [5]: 69.7%
viability, T/C [6]: 60.3%
viability, T/C (second compound 1 µM, first compound 0.000316 µM): 85.5%
viability, T/C (second compound 1 µM, first compound 0.001 µM): 94.1%
viability, T/C (second compound 1 µM, first compound 0.00316 µM): 92.3%
viability, T/C (second compound 1 µM, first compound 0.01 µM): 60.1%
viability, T/C [7]: 78.6%
viability, T/C [8]: 76.7%
viability, T/C (second compound 3.16 µM, first compound 0.000316 µM): 68.5%
viability, T/C (second compound 3.16 µM, first compound 0.001 µM): 81.7%
viability, T/C (second compound 3.16 µM, first compound 0.00316 µM): 74.3%
viability, T/C (second compound 3.16 µM, first compound 0.01 µM): 81.7%
viability, T/C [9]: 78.5%
viability, T/C [10]: 69.6%
viability, T/C (second compound 10 µM, first compound 0.000316 µM): 84.8%
viability, T/C (second compound 10 µM, first compound 0.001 µM): 90.2%
viability, T/C (second compound 10 µM, first compound 0.00316 µM): 77.6%
viability, T/C (second compound 10 µM, first compound 0.01 µM): 81%
viability, T/C [11]: 82.4%
viability, T/C [12]: 76.6%

O=C(c1cc(Cc2n[nH]c(=O)c3ccccc23)ccc1F)N1CCN(C(=O)C2CC2)CC1 + COC1C(OC(N)=O)C(O)C(Oc2ccc3c(O)c(NC(=O)c4ccc(O)c(CC=C(C)C)c4)c(=O)oc3c2C)OC1(C)C
IC50 (second compound 0.0316 µM): > 10 µM
IC50 (second compound 0.1 µM): > 10 µM
IC50 (second compound 0.316 µM): > 10 µM
IC50 (second compound 1 µM): > 10 µM
IC50 (second compound 3.16 µM): > 10 µM
IC50 (second compound 10 µM): > 10 µM
viability, T/C [1]: 86%
viability, T/C [2]: 115%
viability, T/C (second compound 0.0316 µM, first compound 0.316 µM): 95.5%
viability, T/C (second compound 0.0316 µM, first compound 1 µM): 115%
viability, T/C (second compound 0.0316 µM, first compound 3.16 µM): 84.3%
viability, T/C (second compound 0.0316 µM, first compound 10 µM): 89.7%
viability, T/C [3]: 92.3%
viability, T/C [4]: 95.5%
viability, T/C (second compound 0.1 µM, first compound 0.316 µM): 108%
viability, T/C (second compound 0.1 µM, first compound 1 µM): 95.6%
viability, T/C (second compound 0.1 µM, first compound 3.16 µM): 89.3%
viability, T/C (second compound 0.1 µM, first compound 10 µM): 76.8%
viability, T/C [5]: 92.3%
viability, T/C [6]: 95.5%
viability, T/C (second compound 0.316 µM, first compound 0.316 µM): 101%
viability, T/C (second compound 0.316 µM, first compound 1 µM): 98.1%
viability, T/C (second compound 0.316 µM, first compound 3.16 µM): 80.3%
viability, T/C (second compound 0.316 µM, first compound 10 µM): 80.1%
viability, T/C [7]: 117%
viability, T/C [8]: 91.1%
viability, T/C (second compound 1 µM, first compound 0.316 µM): 110%
viability, T/C (second compound 1 µM, first compound 1 µM): 97.5%
viability, T/C (second compound 1 µM, first compound 3.16 µM): 80.7%
viability, T/C (second compound 1 µM, first compound 10 µM): 89.3%
viability, T/C [9]: 98.2%
viability, T/C [10]: 102%
viability, T/C (second compound 3.16 µM, first compound 0.316 µM): 89.4%
viability, T/C (second compound 3.16 µM, first compound 1 µM): 111%
viability, T/C (second compound 3.16 µM, first compound 3.16 µM): 99.6%
viability, T/C (second compound 3.16 µM, first compound 10 µM): 85.7%
viability, T/C [11]: 95.5%
viability, T/C [12]: 89.3%
viability, T/C (second compound 10 µM, first compound 0.316 µM): 92.2%
viability, T/C (second compound 10 µM, first compound 1 µM): 116%
viability, T/C (second compound 10 µM, first compound 3.16 µM): 83.1%
viability, T/C (second compound 10 µM, first compound 10 µM): 96%
